Source: US8673981B2, “Phenylcyclobutylamide derivatives and their stereoisomers, the preparation processes and uses thereof” (priority 2008, dated 2014)
“Also recorded” adds a separate entry of the source.

Legend:
obese rat model = assay: Weight-reducing pharmacodynamics study in the obese animal model (nutrient feed, 30 days); assay type: in vivo, Sprague Dawley rats; set-up: Average fat weight coefficient: unit not given here; conditions: for Average added multiplier of body weight: (final - initial)/initial average body weight; for Average fat weight coefficient: average fat weight/final average body weight; for Average fat weight: intraperitoneal and perirenal fat; for Final average body weight: rats on nutrient feed
Text: The experimental Study of Weight-Reducing on Pharmacodynamics
Same numbers of male and female weanling Sprague Dawley rats (clean grade, 43.3±8.5 g) were obtained from Laboratory Animal Center (Chongqing medical university, China) (Certificate of Approval for Environmental Facilities: SYXK (Yu) 20020007; Certificate of Approval for animal: SCXK (Yu) 20020001). 1.2 Medicine and Preparation: racemic compound hydrochloride of example 7, optical isomers of examples 8, 9, 10 and 11, and positive control Sibutramine Hydrochloride were dissolved in 1% CMC-Na. 1.3 Test Instrument: TGL-16 table model high speed centrifuge (Shanghai Medical Instruments Factory NO. 6); KDC centrifuge (Huicheng Radio Factory, Guangzhou); Sartorius electronic balance (GERMANY); Medical refrigerator temperature (SANYO, JAPAN); thermostat water bath tank (Beijing Xicheng district medical apparatus factory); VXH-3 Mini Vortex Mixer (Shanghai Yuejin Medical Apparatus Facotry). 1.4 Nutrition Feed: the recipe of nutrition feed and basal feed are as follows:
Barley flour 20%, dehydrated vegetable 10%, bean flour 20%, corn flour 16%, yeast 1%, wheat bran 16%, fish meal 10%, bone meal 5%, salt 2%.
In the 100 g basal feed, milk powder 10 g, lard 10 g, egg 1 piece, fresh bean sprouts 250 g, oleum jecoris piscis concentratum 10 drops (including VA 1700 u, VD1700 u) were added.
2.1 Establishment and Grouping of Obese Animal Model
Weanling SD rats were randomly allocated to compound groups with large, middle, small dosages; positive control Sibutramine Hydrochloride groups with large, middle, small dosages; and obese animal model group and blank control group (n=5/group for male; n=5/group for female).
The experimental animals in blank control group were feed with normal feed, and animals in other groups were feed with nutrient feed. All animals have abundant feed for 24 h and can eat casually.
Experimental animals in each group were administrated with corresponding drugs once a day at 9 am for 30 days, with a dosage of 1 ml/100 g body weight. The dosage corresponds to clinical dosage of 10 mg/person/day for Sibutramine, which is transformed according to the equivalent dosage between human and rat. Large dosage group adopts 1.2 mg/kg; middle dosage group adopts 0.6 mg/kg, and small dosage group adopts 0.3 mg/kg. Obese animal model group: […] of 1% CMC-Na solution; blank control group: […] of 1% CMC-Na solution.
Measurements were taken of daily body weight; general status; hair; eye, mouth and nose secretions; feces, urinate and activities.
Intraperitoneal and perirenal fat were weighted, and the fat weight coefficient was calculated by body weight.

[1] = background statement; cited from earlier work
[2] = large dosage 1.2 mg/kg once a day for 30 days
[3] = middle dosage 0.6 mg/kg once a day for 30 days
[4] = small dosage 0.3 mg/kg once a day for 30 days

SMILES: CCC(C)C(N)C(=O)NC(CC(C)C)C1(c2ccc(Cl)cc2)CCC1.Cl (racemic) [Example 7, 2-amino-N-{1-[1-(4-chlorophenyl)cyclobutyl]-3-methylbutyl}-3-methylvaleramide hydrochloride]
- Average added multiplier of body weight (obese rat model; [2]): 3.2
- Average fat weight coefficient (obese rat model; [2]): 1.1
- Average fat weight (obese rat model; [2]): 2.0 g
- Final average body weight (obese rat model; [2]): 176.2 g
- Average added multiplier of body weight (obese rat model; [3]): 3.3
- Average fat weight coefficient (obese rat model; [3]): 1.2
- Average fat weight (obese rat model; [3]): 2.1 g
- Final average body weight (obese rat model; [3]): 180.5 g
- Average added multiplier of body weight (obese rat model; [4]): 3.3
- Average fat weight coefficient (obese rat model; [4]): 1.2
- Average fat weight (obese rat model; [4]): 2.2 g
- Final average body weight (obese rat model; [4]): 186.9 g

SMILES: CC[C@H](C)[C@H](N)C(=O)N[C@@H](CC(C)C)C1(c2ccc(Cl)cc2)CCC1.Cl [Example 8, (2S,3S)-2-amino-N-{(S)-1-[1-(4-chlorophenyl)cyclobutyl]-3-methylbutyl}-3-methylvaleramide hydrochloride]
- Average added multiplier of body weight (obese rat model; [2]): 3.0
- Average fat weight coefficient (obese rat model; [2]): 1.0
- Average fat weight (obese rat model; [2]): 1.7 g
- Final average body weight (obese rat model; [2]): 175.2 g
- Average added multiplier of body weight (obese rat model; [3]): 3.2
- Average fat weight coefficient (obese rat model; [3]): 1.0
- Average fat weight (obese rat model; [3]): 1.9 g
- Final average body weight (obese rat model; [3]): 185.6 g
- Average added multiplier of body weight (obese rat model; [4]): 3.4
- Average fat weight coefficient (obese rat model; [4]): 1.1
- Average fat weight (obese rat model; [4]): 2.0 g
- Final average body weight (obese rat model; [4]): 188.9 g

SMILES: CC[C@H](C)[C@H](N)C(=O)N[C@H](CC(C)C)C1(c2ccc(Cl)cc2)CCC1.Cl [Example 9, (2S,3S)-2-amino-N-{(R)-1-[1-(4-chlorophenyl)cyclobutyl]-3-methylbutyl}-3-methylvaleramide hydrochloride]
- Average added multiplier of body weight (obese rat model; [2]): 2.6
- Average fat weight coefficient (obese rat model; [2]): 0.9
- Average fat weight (obese rat model; [2]): 1.4 g
- Final average body weight (obese rat model; [2]): 156.1 g
- Average added multiplier of body weight (obese rat model; [3]): 2.7
- Average fat weight coefficient (obese rat model; [3]): 0.9
- Average fat weight (obese rat model; [3]): 1.5 g
- Final average body weight (obese rat model; [3]): 167.9 g
- Decrease of body weight compared with Sibutramine (obese rat model; obese rats, 30 days): decreased the body weight evidently
- Effect of decreasing fat weight (obese rat model; obese rats, 30 days, among treatment groups and versus Sibutramine, hydrochloride): the best; also recorded: significantly better effect than Sibutramine
- Average added multiplier of body weight (obese rat model; [4]): 2.8
- Average fat weight coefficient (obese rat model; [4]): 0.9
- Average fat weight (obese rat model; [4]): 1.5 g
- Final average body weight (obese rat model; [4]): 168.1 g

SMILES: CC[C@@H](C)[C@@H](N)C(=O)N[C@@H](CC(C)C)C1(c2ccc(Cl)cc2)CCC1.Cl [Example 10, (2R,3R)-2-amino-N-{(S)-1-[1-(4-chlorophenyl)cyclobutyl]-3-methylbutyl}-3-methylvaleramide hydrochloride]
- Average added multiplier of body weight (obese rat model; [2]): 3.0
- Average fat weight coefficient (obese rat model; [2]): 1.1
- Average fat weight (obese rat model; [2]): 1.9 g
- Final average body weight (obese rat model; [2]): 173.9 g
- Average added multiplier of body weight (obese rat model; [3]): 3.2
- Average fat weight coefficient (obese rat model; [3]): 1.2
- Average fat weight (obese rat model; [3]): 2.0 g
- Final average body weight (obese rat model; [3]): 180.4 g
- Average added multiplier of body weight (obese rat model; [4]): 3.2
- Average fat weight coefficient (obese rat model; [4]): 1.2
- Average fat weight (obese rat model; [4]): 2.1 g
- Final average body weight (obese rat model; [4]): 185.0 g

SMILES: CC[C@@H](C)[C@@H](N)C(=O)N[C@H](CC(C)C)C1(c2ccc(Cl)cc2)CCC1.Cl [Example 11, (2R,3R)-2-amino-N-{(R)-1-[1-(4-chlorophenyl)cyclobutyl]-3-methylbutyl}-3-methylvaleramide hydrochloride]
- Average added multiplier of body weight (obese rat model; [2]): 2.8
- Average fat weight coefficient (obese rat model; [2]): 1.1
- Average fat weight (obese rat model; [2]): 1.8 g
- Final average body weight (obese rat model; [2]): 162.4 g
- Average added multiplier of body weight (obese rat model; [3]): 3.0
- Average fat weight coefficient (obese rat model; [3]): 1.1
- Average fat weight (obese rat model; [3]): 1.9 g
- Final average body weight (obese rat model; [3]): 173.2 g
- Average added multiplier of body weight (obese rat model; [4]): 3.2
- Average fat weight coefficient (obese rat model; [4]): 1.2
- Average fat weight (obese rat model; [4]): 2.1 g
- Final average body weight (obese rat model; [4]): 181.0 g

SMILES: CC(C)CC(N(C)C)C1(c2ccc(Cl)cc2)CCC1.Cl.O (stereo not drawn) [Sibutramine, 1-(4-chlorophenyl)-N,N-dimethyl-α-(2-methylpropyl)cyclobutanemethanamine hydrochloride monohydrate, reference compound]
- Average added multiplier of body weight (obese rat model; [2]): 2.9
- Average fat weight coefficient (obese rat model; [2]): 1.1
- Average fat weight (obese rat model; [2]): 1.9 g
- Final average body weight (obese rat model; [2]): 165.7 g
- Average added multiplier of body weight (obese rat model; [3]): 3.2
- Average fat weight coefficient (obese rat model; [3]): 1.0
- Average fat weight (obese rat model; [3]): 1.8 g
- Final average body weight (obese rat model; [3]): 183.2 g
- Average added multiplier of body weight (obese rat model; [4]): 3.4
- Average fat weight coefficient (obese rat model; [4]): 1.0
- Average fat weight (obese rat model; [4]): 1.9 g
- Final average body weight (obese rat model; [4]): 185.7 g
- Reduction of basal weight [1]: 5%-10%
